Experimental data taken from patent US7807714B2, “Fungicidal compositions” (Syngenta Crop Protection, Inc., priority 2006, dated 2010).
Several values for one entry are separate records, joined by “and”; a condition that tells them apart may be missing. Identical values can stand only once. Like-named read-outs stand apart in the source and are kept apart here.

Columns and labels:
Format in all cases: cell-based
[1] = test system: Pythium Ultimum; test: Activity against Pythium Ultimum (growth inhibition in PDB, microtiter plate, photometric); conditions: 48 hrs
[2] = test system: Fusarium Graminearum; conditions: 48 hrs
[3] = test system: Gäumannomyces Graminis; test: Activity Against Gäumannomyces Graminis (growth inhibition in PDB, microtiter plate, photometric); conditions: 72 hrs
[4] = test system: Pyrenophora Graminea; test: Activity against Pyrenophora Graminea (growth inhibition in PDB, microtiter plate, photometric); conditions: 72 hrs
[5] = test system: Rhizoctonia Solani; test: Activity against Rhizoctonia Solani (growth inhibition in PDB, microtiter plate, photometric); conditions: 48 hrs
[6] = 0.0039 ppm (mg active ingredient/liter final medium)
[7] = 0.0078 ppm (mg active ingredient/liter final medium)
[8] = 0.03125 ppm (mg active ingredient/liter final medium)
[9] = 0.0625 ppm (mg active ingredient/liter final medium)
[10] = 0.125 ppm (mg active ingredient/liter final medium)
[11] = 0.25 ppm (mg active ingredient/liter final medium)
[12] = 0.5 ppm (mg active ingredient/liter final medium)
[13] = 1.0 ppm (mg active ingredient/liter final medium)

Cn1cc(C(=O)Nc2ccccc2C2CC2C2CC2)c(C(F)F)n1 (racemic) [Cpd A]
Observed control in % (% Cobs) [1, 6]: 0% | Observed control in % (% Cobs) [1, 7]: 0% | Observed control in % (% Cobs) [1, 8]: 0% | Observed control in % (% Cobs) [2, 8]: 0% | Observed control in % (% Cobs) [2, 9]: 2.0% and 4.2% | Observed control in % (% Cobs) [2, 10]: 3.5% | Observed control in % (% Cobs) [2, 11]: 10.5% and 4.0% | Observed control in % (% Cobs) [2, 12]: 9.3% | Observed control in % (% Cobs) [2, 13]: 6.6% and 5.8% | Observed control in % (% Cobs) [3, 10]: 0% | Observed control in % (% Cobs) [3, 12]: 0% | Observed control in % (% Cobs) [3, 13]: 19.4% | Observed control in % (% Cobs) ([4]; 0.002 ppm (mg active ingredient/liter final medium)): 0% | Observed control in % (% Cobs) [4, 6]: 1.3% and 3.3% | Observed control in % (% Cobs) [4, 7]: 0% | Observed control in % (% Cobs) ([4]; 0.0156 ppm (mg active ingredient/liter final medium)): 0% | Observed control in % (% Cobs) [4, 8]: 0% and 5.8% | Observed control in % (% Cobs) [4, 9]: 4.0% | Observed control in % (% Cobs) [4, 10]: 0% | Observed control in % (% Cobs) [4, 13]: 0% | Observed control in % (% Cobs) [5, 9]: 0% | Observed control in % (% Cobs) [5, 10]: 22.8% and 23.0% and 29.3% and 40.2% | Observed control in % (% Cobs) [5, 11]: 73.2%
